In article PMC3542062, “A phenyl-thiadiazolylidene-amine derivative ejects zinc from retroviral nucleocapsid zinc fingers and inactivates HIV virions” (Retrovirology, 2012):

Tests used:
[1] = test system: HIV-1 NL4.3 capture by Raji/DC-SIGN cells; test: HIV capture by Raji/DC-SIGN cells (procedure A), p24 ELISA; conditions: HIV pretreated 1 h with compound, then Raji/DC-SIGN cells; p24 of washed cell pellet
Experimental: After 60 minutes of pre-incubation with the Raji/DC-SIGN cells, unabsorbed virus and test compound were carefully removed by repeated washing steps, and the amount of captured virus was determined by measurement of the virus-associated p24 content on the Raji/DC-SIGN cell surface. The α(1-3)/(1-6)-mannose-specific plant lectin HHA was included as a positive control for inhibition of virus capture by Raji/DC-SIGN cells.
Then, 0.5 ml exponentially growing Raji/DC-SIGN cells (10^6 cells) was added, and the suspension further incubated at 37°C for 60 minutes. Subsequently, 39 ml medium was added and the cell suspension was centrifuged at 300 g for 10 minutes. The obtained pellet was washed again with 40 ml medium and after centrifugation, the cell pellet (containing DC-SIGN-bound virus) was analyzed for p24 antigen content by ELISA. […] In the above-described experiments, the mannose-binding entry inhibitor HHA was included as a reference compound.

HIV-1 virus particles = test: Virion-associated genomic RNA of pre-treated virus (RT-qPCR, Northern blot); conditions: compound-cleared HIV-1 virus stock, RT-qPCR or Northern blot
[2] = test system: HIV-1 IIIB chronically-infected HuT-78 cells; test: Gag processing in virions from HIV-1 IIIB chronically-infected HuT-78 cells (western blot); format: cell-based; conditions: HuT-78/IIIB cells treated 43 hours; WDO-217 50, 25 μM; ritonavir 2.7 μM; SRR-SB3 75, 15 μM
Experimental: Recently, it has been shown that this new mechanism involves acetylation of the NCp7 region of Gag, thereby blocking Gag processing.
HIV-1 IIIB virions from persistently infected HuT-78 cells treated with different concentrations of compound were analysed by gel electrophoresis and immunoblotted with antibody against capsid.
Chronically-infected HIV-1 IIIB HuT-78 cells (HuT-78/IIIB) were washed four times with PBS to remove all free virions before treatment and 2 × 10^5 cells were resuspended in 1 ml compound-containing medium for 43 hours at 37°C. Then, virions were prepared from clarified supernatants (10 min at 300 g) by centrifugation at 36670 g for 2 hours at 4°C. Protein from lysed virions were separated by SDS-PAGE on a NuPage® Novex 4-12% Bis-Tris gel (Invitrogen) and transferred on a hydrophobic polyvinylidene difluoride (PVDF) membrane (Amersham Hybond™-P). The blot was blocked overnight at 4°C by 5% dry milk powder in Western blot wash solution (WBWS; PBS + 0.5% Tween 20), washed three times for 5 minutes with WBWS and incubated with a mouse anti-HIV-1 p24 antibody (1:5000) from Abcam. The blot was then washed three times for 5 minutes with WBWS and incubated for 1 h with a goat anti-mouse IgG-HRP secondary antibody (1:2500) from Santa Cruz Biotechnology. […]

SIV Mac251 = test: MT-4/MTT-assay, protection against virus-induced cytopathic effect; format: cell-based; conditions: MT-4 cells, MTT, 5 days after infection
VSV = format: cell-based
VZV = test: Activity against replication of non-retroviruses; format: cell-based
[3] = Cytostatic activity, CEM cell proliferation; format: cell-based, human; conditions: human, CEM T-lymphocyte cells
HIV-1 IIIB [4] = test: MT-4/MTT-assay, protection against virus-induced cytopathic effect; format: cell-based; conditions: MT-4 cells, MTT, 5 days after infection
[5] = test system: HIV-1 NL4.3 transmission from Raji/DC-SIGN cells to C8166 cells; test: Transmission of DC-SIGN-captured pretreated virus to C8166 cells (procedure B); format: cell-based; conditions: Human immunodeficiency virus 1; Raji/DC-SIGN exposed to compound-pretreated (1 h) HIV, compound removed, cocultured with C8166
NL4.3/WT = test: GFP-assay in Jurkat A72 (LTR-GFP) cells; format: cell-based, HIV-1; conditions: Human immunodeficiency virus 1, Jurkat, 72 h, read-out: EC50 NL4.3/WT
UG275 subtype A = test: Virucidal assay on clinical isolates, titration on PBMCs; format: cell-based, HIV-1; conditions: 125 μM, 1 h 37°C, untreated control 16242
NL4.3/DS5000R = test: GFP-assay in Jurkat A72 (LTR-GFP) cells; format: cell-based, HIV-1; conditions: Human immunodeficiency virus 1, Jurkat, 72 h, read-out: EC50 NL4.3/DS5000R
ETH2220 subtype C = test: Virucidal assay on clinical isolates, titration on PBMCs; format: cell-based, HIV-1; conditions: 125 μM, 1 h 37°C, untreated control 64969
HIV-1 IIIB [6] = test: Virucidal assay: virus pre-incubated with compound, diluted, titrated on MT-4 cells; conditions: for CCID50/ml HIV-1 IIIB: no drug 1 × 10^6
CMV = test: Activity against replication of non-retroviruses; format: cell-based
HIV-2 ROD [7] = test: GFP-assay in Jurkat A72 (LTR-GFP) cells; format: cell-based; conditions: Human immunodeficiency virus 2, 72 h, 3 days after infection
AZTR HIV-1 strain = test: GFP-assay in Jurkat A72 (LTR-GFP) cells; format: cell-based; conditions: Human immunodeficiency virus 1, Jurkat, 72 h, read-out: EC50 AZTR
HIV-2 ROD [8] = test: Virucidal assay: virus pre-incubated with compound, diluted, titrated on MT-4 cells; conditions: for CCID50/ml HIV-2 ROD: no drug 5.4 × 10^6
HIV-2 ROD [9] = test: Anti-HIV activity in CEM cells (cytopathogenicity); format: cell-based; conditions: Human immunodeficiency virus 2, CCRF-CEM
[10] = test system: HIV-1 NL4.3 transmission from Raji/DC-SIGN cells to C8166 cells; test: Transmission of DC-SIGN-captured virus to C8166 cells in presence of compound (procedure C); format: cell-based; conditions: Human immunodeficiency virus 1; HIV-captured Raji/DC-SIGN cocultivated with C8166 in presence of compound; giant cell formation
[11] = MTT-based viability assay in Jurkat cells; conditions: human
HIV-2 ROD [12] = test: MT-4/MTT-assay, protection against virus-induced cytopathic effect; format: cell-based; conditions: Human immunodeficiency virus 2, MT4, 120 h; MT-4 cells, MTT, 5 days after infection
BCF-Dioum subtype G = test: Virucidal assay on clinical isolates, titration on PBMCs; format: cell-based, HIV-1; conditions: 125 μM, 1 h 37°C, untreated control 25781
[13] = Cytotoxicity in mock-infected MT-4 cells (MTT); format: cell-based; conditions: human, mock-infected MT-4 cells
RSV = test: Activity against replication of non-retroviruses; format: cell-based
UG270 subtype D = test: Virucidal assay on clinical isolates, titration on PBMCs; format: cell-based, HIV-1; conditions: 125 μM, 1 h 37°C, untreated control 25781
HSV = test: Activity against replication of non-retroviruses; format: cell-based
[14] = virus incubated 1 h 37°C with 0.2 μM
[15] = virus incubated 1 h 37°C with 1 μM
[16] = virus incubated 1 h 37°C with 5 μM
[17] = virus incubated 1 h 37°C with 25 μM
[18] = virus incubated 1 h 37°C with 625 μM
[19] = virus incubated at 26, 130 and 650 μM, 1 h 37°C

Q: With `Cn1sc(=N)nc1-c1ccccc1` [WDO-217, 2-methyl-3-phenyl-2H-[1,2,4]thiadiazol-5-ylideneamine] as the molecule, how does the “IC50 HIV-capture procedure A” value [1] read?
A: Its value is “not able to prevent binding”.

Q: And the “viral genomic RNA content after treatment” value (HIV-1 virus particles)?
A: The value was “clear decrease”.

Q: What about the “accumulation of unprocessed Gag polyprotein in progeny virus” value [2] of the same molecule?
A: Its value is “did not result in a drastic accumulation”.

Q: And the EC50 (SIV Mac251)?
A: The EC50 was 5.3 ± 1.5 µM.

Q: And the EC50 (SIV Mac251; Simian immunodeficiency virus, MT4, 120 h)?
A: The EC50 was 5 ± 1 µM.

Q: What about the “activity against replication of VSV” value (VSV) of the same molecule?
A: Its value is “inactive”.

Q: What about the “activity against replication of VZV” value (VZV) of the same molecule?
A: The value was “inactive”.

Q: And the CC50 [3]?
A: The CC50 was 94 ± 15 µM.

Q: What about the EC50 (HIV-1 IIIB [4]; Human immunodeficiency virus 1, IIIB, MT4, 120 h) of the same molecule?
A: The EC50 was 5 ± 3 µM.

Q: And the EC50 (HIV-1 IIIB [4])?
A: Its EC50 is 7.9 ± 3.3 µM.

Q: What about the IC50 [5] of the same molecule?
A: Its IC50 is 2.2 ± 1 µM.

Q: What about the EC50 (NL4.3/WT) of the same molecule?
A: The EC50 was 0.9 ± 0.05 µM.

Q: And the “CCID50/ml UG275 subtype A” value (UG275 subtype A)?
A: Its value is 2558 CCID50/ml.

Q: And the EC50 (NL4.3/DS5000R)?
A: The EC50 was 1.2 ± 0.1 µM.

Q: And the “CCID50/ml ETH2220 subtype C” value (ETH2220 subtype C)?
A: Its value is 2558 CCID50/ml.

Q: And the “CCID50/ml HIV-1 IIIB” value (HIV-1 IIIB [6]; [14])?
A: The value was 5.4 × 10^6 CCID50/ml.

Q: What about the “CCID50/ml HIV-1 IIIB” value (HIV-1 IIIB [6]; [15]) of the same molecule?
A: The value was 1.6 × 10^6 CCID50/ml.

Q: What about the “CCID50/ml HIV-1 IIIB” value (HIV-1 IIIB [6]; [16]) of the same molecule?
A: Its value is 1 × 10^6 CCID50/ml.

Q: And the “CCID50/ml HIV-1 IIIB” value (HIV-1 IIIB [6]; [17])?
A: Its value is 0 CCID50/ml.

Q: What about the “CCID50/ml HIV-1 IIIB” value (HIV-1 IIIB [6]; [18]) of the same molecule?
A: The value was 0 CCID50/ml.

Q: What about the “Infectivity of pre-incubated HIV-1 virus” value (HIV-1 IIIB [6]; [19]) of the same molecule?
A: Its value is “no longer able to infect cells”.

Q: What about the “activity against replication of CMV” value (CMV) of the same molecule?
A: Its value is “inactive”.

Q: What about the EC50 (HIV-2 ROD [7]) of the same molecule?
A: The EC50 was 1.04 ± 0.3 µM.

Q: What about the EC50 (AZTR HIV-1 strain) of the same molecule?
A: The EC50 was 1.5 ± 0.6 µM.

Q: What about the “CCID50/ml HIV-2 ROD” value (HIV-2 ROD [8]; [14]) of the same molecule?
A: Its value is 1.6 × 10^6 CCID50/ml.

Q: And the “CCID50/ml HIV-2 ROD” value (HIV-2 ROD [8]; [15])?
A: Its value is 1 × 10^6 CCID50/ml.

Q: What about the “CCID50/ml HIV-2 ROD” value (HIV-2 ROD [8]; [16]) of the same molecule?
A: Its value is 2.1 × 10^6 CCID50/ml.

Q: What about the “CCID50/ml HIV-2 ROD” value (HIV-2 ROD [8]; [17]) of the same molecule?
A: The value was 0 CCID50/ml.

Q: And the “CCID50/ml HIV-2 ROD” value (HIV-2 ROD [8]; [18])?
A: The value was 0 CCID50/ml.

Q: What about the “Infectivity of pre-incubated HIV-2 virus” value (HIV-2 ROD [8]; [19]) of the same molecule?
A: Its value is “no longer able to infect cells”.

Q: And the EC50 (HIV-2 ROD [9])?
A: The EC50 was 15 ± 6.7 µM.

Q: What about the IC50 [10] of the same molecule?
A: Its IC50 is 8.3 ± 0.4 µM.

Q: And the CC50 [11]?
A: The CC50 was 75 ± 11 µM.

Q: What about the EC50 (HIV-2 ROD [12]) of the same molecule?
A: Its EC50 is 2.3 ± 0.3 µM.

Q: And the “CCID50/ml BCF-Dioum subtype G” value (BCF-Dioum subtype G)?
A: The value was 2558 CCID50/ml.

Q: And the CC50 at 5 days [13]?
A: Its CC50 at 5 days is roughly 72 µM.

Q: And the “activity against replication of RSV” value (RSV)?
A: The value was “inactive”.

Q: What about the “CCID50/ml UG270 subtype D” value (UG270 subtype D) of the same molecule?
A: The value was 6446 CCID50/ml.

Q: And the “activity against replication of HSV” value (HSV)?
A: The value was “inactive”.
